{
  "source": "patent US12433903B2",
  "about": "(priority 2021, dated 2025)",
  "key": {"[1]": {"tested_on": "cryopreserved hepatocytes", "assay": "Hepatocyte stability and metabolite profiling, dog", "format": "in vitro ADME", "settings": "dog hepatocyte samples, 10 and 20 minute", "experimental": "The objective of this study was to investigate the stability of the test compound, CBG, in human, rat, dog, mouse, monkey and minipig cryopreserved hepatocytes. Follow-on metabolite profiling was performed.\nCBG was incubated up to 2 hr with cryopreserved hepatocytes. Cryopreserved hepatocytes in suspension were added to test compound in supplemented media following pre-incubation to initiate the reaction and the reactions were stopped by organic solvent at the appropriate time points. The termination plates were centrifuged and sample supernatants were analysed using Cyprotex generic LC MS/MS conditions to generate intrinsic clearance values for CBG. Two control compounds for each species were included in the assay and if the values for these compounds were not within the specified limits the results were rejected and the experiment repeated.\nFollowing the hepatocyte stability assay the samples were 59 tilized for metabolite profiling using suitable high-resolution LC-MS/MS conditions. The 40 and 60 minute human samples, 20 and 120 minute rat samples, 10 and 20 minute dog and monkey samples, 20 and 60 minute mouse samples, and 40 and 120 minute minipig samples were compared against the 0 minute control sample to establish which and how many metabolites were formed. […]\nThe areas and percentages reported for the parent and metabolites were calculated using the XIC data. […]"}, "rUGT2B7": {"molecular_target": "T1, rUGT2B7 (Homo sapiens, UniProt P16662)", "T1 sequence (P16662 24-529)": "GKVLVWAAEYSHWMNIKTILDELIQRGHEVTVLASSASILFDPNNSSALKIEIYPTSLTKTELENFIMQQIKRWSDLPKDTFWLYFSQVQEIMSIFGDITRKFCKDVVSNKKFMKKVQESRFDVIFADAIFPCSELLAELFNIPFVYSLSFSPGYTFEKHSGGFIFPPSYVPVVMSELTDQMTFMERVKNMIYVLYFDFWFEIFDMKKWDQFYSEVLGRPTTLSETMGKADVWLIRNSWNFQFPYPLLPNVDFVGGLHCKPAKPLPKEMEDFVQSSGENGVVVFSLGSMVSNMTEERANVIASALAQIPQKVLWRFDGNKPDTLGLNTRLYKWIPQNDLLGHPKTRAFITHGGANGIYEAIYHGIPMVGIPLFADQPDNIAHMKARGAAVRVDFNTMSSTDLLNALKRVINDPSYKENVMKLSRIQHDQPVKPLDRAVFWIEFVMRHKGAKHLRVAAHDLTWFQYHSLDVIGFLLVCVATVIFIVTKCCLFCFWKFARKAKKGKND", "assay": "Inhibition of CBG glucuronidation by Compound 1, rUGT2B7", "format": "in vitro ADME", "experimental": "The purpose of this experiment was to determine if Compound 1 can inhibit the glucuronidation of CBG, as both are substrates for the two major isoforms responsible for CBG glucuronidation.\nThe ability of Compound 1 to inhibit the metabolism of CBG by UGT1A9 and UGT2B7 enzymes was investigated to ascertain the IC50 values for direct inhibition. The incubation conditions (substrate concentration, incubation time and protein concentration) were determined in Part 2 of the protocol such that CBG metabolism remains near initial rate conditions (e.g., 20-30% substrate loss).\nPreliminary experiments were conducted in Part I of the protocol, first to establish the HPLC/MS/MS bioanalytical methods for CBG and CBG glucuronide. […] The second set of preliminary experiments (Part 2), as mentioned, were conducted to optimize the incubation conditions as described above. Incubations (at 37° C.) contained Tris-HCl buffer (100 mM, pH 7.7), MgCl2 (10 mM), EDTA (1 mM, pH 7.4) and UDP-glucuronic acid (UDPGA, 10 mM). CBG was added to each incubation in DMSO such that the final percent of DMSO was 1% v/v, or less. Reactions were terminated by the addition of an equal volume of stop reagent, acetonitrile containing an internal standard. The samples were centrifuged (e.g., 920 RCF for 10 minutes at 10° C.), and the supernatant fractions were analyzed by LC-MS/MS to determine the amount of CBG remaining and formation of one metabolite (CBG glucuronide).\nTo examine its ability to act as a direct inhibitor of the above listed enzymes, Compound 1 was be added to recombinant human UGT enzyme together with CBG. Reactions were initiated with UDPGA and were carried out in duplicate. For all assays, reactions were terminated by the addition of acetonitrile with or without 2% v/v formic acid, including the internal standard.\nAuthentic metabolite reference standards were used for quantitation of the probe substrate metabolites and as internal standards. Based on the information obtained in the Part 2 experiments, the following table summarizes the experiments performed, assessing the inhibitory effects of Compound 1 was conducted as follows:\nThe amounts of CBG present at the end of the incubation periods was determined. For inhibition to have occurred, the amounts of CBG present at the end of the incubation period needed to increase, and the amounts of glucuronide formed needed to decrease."}, "[2]": {"settings": "10 μM CBG + 0.01 μM Compound 1, 5 min"}, "[3]": {"settings": "10 μM CBG + 0.03 μM Compound 1, 5 min"}, "[4]": {"settings": "10 μM CBG + 0.1 μM Compound 1, 5 min"}, "[5]": {"settings": "10 μM CBG + 0.3 μM Compound 1, 5 min"}, "[6]": {"settings": "10 μM CBG + 1 μM Compound 1, 5 min"}, "[7]": {"settings": "10 μM CBG + 3 μM Compound 1, 5 min"}, "[8]": {"settings": "10 μM CBG + 10 μM Compound 1, 5 min"}},
  "data": [
    {"compound": "CCCCCc1cc(O)c(C/C=C(\\C)CCC=C(C)C)c(O)c1", "note": "[CBG, cannabigerol]", "values": [
      {"measurement": "metabolites observed (number)", "setting": "[1]", "value": "three"}
    ]},
    {"compound": "CCCCCc1cc(O)c(C/C=C(\\C)CCC=C(C)C)c(OC)c1", "note": "[Compound 1, (E)-2-(3,7-dimethylocta-2,6-dien-1-yl)-3-methoxy-5-pentylphenol]", "values": [
      {"measurement": "CBG detected (CBG loss)", "setting": "rUGT2B7; [2]", "value": 1370, "unit": "pmol"},
      {"measurement": "CBG detected, Percent of control", "setting": "rUGT2B7; [2]", "value": 103},
      {"measurement": "CBG glucuronide formed", "setting": "rUGT2B7; [2]", "value": 260000, "unit": "area ratio"},
      {"measurement": "CBG glucuronide formed, Percent of control", "setting": "rUGT2B7; [2]", "value": 104},
      {"measurement": "CBG detected (CBG loss)", "setting": "rUGT2B7; [3]", "value": 1460, "unit": "pmol"},
      {"measurement": "CBG detected, Percent of control", "setting": "rUGT2B7; [3]", "value": 109},
      {"measurement": "CBG glucuronide formed, Percent of control", "setting": "rUGT2B7; [3]", "value": 101},
      {"measurement": "CBG detected (CBG loss)", "setting": "rUGT2B7; [4]", "value": 1410, "unit": "pmol"},
      {"measurement": "CBG detected, Percent of control", "setting": "rUGT2B7; [4]", "value": 106},
      {"measurement": "CBG glucuronide formed, Percent of control", "setting": "rUGT2B7; [4]", "value": 103},
      {"measurement": "CBG detected (CBG loss)", "setting": "rUGT2B7; [5]", "value": 1450, "unit": "pmol"},
      {"measurement": "CBG detected, Percent of control", "setting": "rUGT2B7; [5]", "value": 109},
      {"measurement": "CBG glucuronide formed, Percent of control", "setting": "rUGT2B7; [5]", "value": 105},
      {"measurement": "CBG detected (CBG loss)", "setting": "rUGT2B7; [6]", "value": 1460, "unit": "pmol"},
      {"measurement": "CBG detected, Percent of control", "setting": "rUGT2B7; [6]", "value": 109},
      {"measurement": "CBG glucuronide formed, Percent of control", "setting": "rUGT2B7; [6]", "value": 102},
      {"measurement": "CBG detected (CBG loss)", "setting": "rUGT2B7; [7]", "value": 1440, "unit": "pmol"},
      {"measurement": "CBG detected, Percent of control", "setting": "rUGT2B7; [7]", "value": 108},
      {"measurement": "CBG glucuronide formed, Percent of control", "setting": "rUGT2B7; [7]", "value": 101},
      {"measurement": "CBG detected (CBG loss)", "setting": "rUGT2B7; [8]", "value": 1470, "unit": "pmol"},
      {"measurement": "CBG detected, Percent of control", "setting": "rUGT2B7; [8]", "value": 111},
      {"measurement": "CBG glucuronide formed, Percent of control", "setting": "rUGT2B7; [8]", "value": 96.0},
      {"measurement": "metabolism of CBG in the presence of Compound 1 (in words)", "setting": "rUGT2B7; 0.01-10 μM Compound 1, CBG disappearance or glucuronide formation", "value": "essentially unchanged"}
    ]}
  ]
}
